Data published in patent publication US7705050B2, “Amides, useful in the inhibition of IL-8-induced chemotaxis of neutrophils” (priority 2000, dated 2010).

Columns and labels:
[1] = test system: human PMNs stimulated by IL-8; assay: Chemotaxis of human PMNs stimulated by IL-8 (48-well microchamber); assay type: cell-based; settings: for activity on chemotaxis induced by IL-8, in words: Tables 1 and 2; for % inhibition of leucocyte chemotaxis: Table 3, diastereoisomers of ibuprophenoyl-alanine
Protocol: For in vitro evaluation of the compounds of the invention, polymorphonucleated leucocytes were used (hereinafter referred to as PMNs) isolated from heparinized human blood, taken from consenting healthy adults, by means of sedimentation on dextrane; the mononucleated cells were removed by means of Ficoll/Hypaque, whilst the red blood cells were eliminated by treatment with hypotonic solutions. The cell vitality of the PMNs was calculated by exclusion with Tripan blue, whilst the percentage of PMNs on the cytocentrifugate was estimated after staining with Diff Quinck., in accordance with the procedure described by W. J. Ming et al., J. Immunol., 138, 1469, 1987. In each of the experiments, which will be described in details below, the pre-incubations were carried out at a temperature of 37° C., observing incubation times of 10 minutes with the compounds under examination.
In the chemotaxis experiments and in those aimed at measuring the cytosol levels of the Ca^++ ion, recombinant human interleukin-8 (rhIL-8, Pepro Tech) was used; the lyophilized protein was dissolved in HBSS (Hank's balanced salts solution) at the concentration of 100 mcg/mL, and then diluted down to a concentration of 10 ng/mL in the chemotaxis experiments, to that a concentration of 25-50 ng/mL in the evaluation of the intracellular modifications of Ca^2+ (i.e. [Ca^2+]i) and to that a concentration of 400 ng/ml in the evaluation of tyrosine kinase activation.
During the chemotaxis assay (according to W. Falket et al., J. Immunol. Methods, 33, 239, 1980) PVP-free filters were used having a porosity of 5 mcm and microchambers made of plexiglas suitable for carrying out the replication.
The compounds being studied were added at one and the same concentration in the top-level wells that contained the suspension of PMNs, and in the wells of the bottom level that contained the vehicle to which IL-8 (or, if so desired, another stimulating agent) was added or otherwise.

PGE2 = PGE2 synthesis in murine macrophages stimulated with lipopolysaccharides; assay type: cell-based; settings: after stimulation with LPSs at 1 μg/mL
TNF-α [2] = assay: TNF-α production in murine macrophages stimulated by LPS or H2O2; assay type: cell-based; settings: stimulated in murine macrophages by H2O2 and by liposaccharides
TNF-α [3] = settings: in the presence of LPSs and of S-ketoprofen 10^−5 M; LPSs alone 10±5 ng/mL; cited from earlier work
[4] = Table 1, compound conc. 10^−8 M, IL-8 10 ng/mL
[5] = Table 2, compounds 10^−8 M, IL-8 10 ng/mL

Row | SMILES | activity on chemotaxis induced by IL-8, in words [1] | % inhibition of chemotaxis of human PMNs stimulated by IL-8 (10 ng/mL) [1, 5] [%] | further results
1 | CC(C)Cc1ccc([C@H](C)C(N)=O)cc1 [(S)-2-(4-isobutyl-phenyl)-propionamide, reference compound] | altogether absent |  | % inhibition of chemotaxis of human PMNs stimulated by IL-8 (10 ng/mL) [1, 4]: −2 ± 8%
2 | CC(C)Cc1ccc([C@@H](C)C(N)=O)cc1 [Compound 1, (R)-2-(4-isobutyl-phenyl)-propionamide, reference compound] | active | 57 ± 12 | % inhibition of chemotaxis of human PMNs stimulated by IL-8 (10 ng/mL) [1, 4]: 57 ± 12%
3 | CNC(=O)[C@H](C)c1ccc(CC(C)C)cc1 [Compound 2, R(−)-2-(4′-isobutyl)phenyl-N-methyl propionamide] |  | 25 ± 9 | synthesis of PGE2 in the macrophages (PGE2): do not inhibit; production of TNF-α (TNF-α [2]): down-regulate the production of TNF-α; % inhibition of leucocyte chemotaxis stimulated by IL-8 (10 ng/mL) ([1]; concentration of 10^−8 M): 25±9%
4 | CC(C)Cc1ccc([C@@H](C)C(=O)NCCO)cc1 [Compound 3, R(−)-2-(4′-isobutyl)phenyl-N-(2′-hydroxyethyl)propionamide] | decrease in the biological activity | 20 ± 11 | 
5 | CC(C)Cc1ccc([C@@H](C)C(=O)NCC(=O)O)cc1 [Compound 4, R(−)-2-[(4′-isobutyl)phenyl]-N-carboxymethyl propionamide] | inhibitory effect on chemotaxis | 45 ± 8 | 
6 | CC(C)Cc1ccc([C@@H](C)C(=O)N[C@@H](C)C(=O)O)cc1 [Compound 5] | marked “pro-kinetic” paradox effect | 65 ± 9 | inhibition of chemotaxis induced by IL-8, dose dependence ([1]; IL-8 10 ng/mL, concentration range from 10^−8 to 10^−10 M): inhibits, in a dose-dependent way; % inhibition of leucocyte chemotaxis [1]: 65 ± 9%
7 | CC(C)Cc1ccc([C@@H](C)C(=O)N[C@H](C)C(=O)O)cc1 [Compound 6, (R,R′)-2-[(4′-isobutyl)phenyl]-N-(2″-carboxyethyl)propionamide] | inhibitory effect on chemotaxis | −17 ± 6 | % inhibition of leucocyte chemotaxis [1]: −17 ± 6%
8 | CC(C)Cc1ccc([C@@H](C)C(=O)N[C@@H](CO)C(=O)O)cc1 [Compound 7] | decrease in the biological activity | 12 ± 4 | 
9 | CC(C)Cc1ccc([C@@H](C)C(=O)NCCOCCO)cc1 [Compound 8, R(−)-2-[(4′-isobutyl)phenyl]-N-(2″-hydroxyethoxyethyl)propionamide] | restored | 40 ± 4 | 
10 | CC(C)Cc1ccc([C@@H](C)C(=O)Nc2ccccc2)cc1 [Compound 9, R(−)-2-(4′-isobutyl)phenyl-N-phenyl propionamide] | poor activity | 9 ± 10 | 
11 | CC(C)Cc1ccc([C@@H](C)C(=O)Nc2ccccn2)cc1 [Compound 10, R(−)-2-(4′-isobutyl)phenyl-N-(2′-pyridyl)propionamide] | good activity | 36 ± 6 | 
12 | CC(C)Cc1ccc([C@@H](C)C(=O)Nc2cccnc2)cc1 [Compound 11, R(−)-2-[(4′-isobutyl)phenyl]-N-(3″-pyridyl)propionamide] | poor activity | 11 ± 10 | 
13 | CC(C)Cc1ccc([C@@H](C)C(=O)Nc2ccncc2)cc1 [Compound 12] | good activity | 61 ± 8 | 
14 | Cc1ccnc(NC(=O)[C@H](C)c2ccc(CC(C)C)cc2)c1 [R(−)-2-[(4′-isobutyl)phenyl]-N-(4″-methyl-2″-pyridyl)propionamide, reference compound] |  |  | % inhibition of chemotaxis of human PMNs stimulated by IL-8 (10 ng/mL) ([1]; Table 4, IL-8 10 ng/mL): −12 ± 2%
15 | Cc1ccnc(NC(=O)[C@H](C)c2cccc(C(=O)c3ccccc3)c2)c1 [R(−)-2-[(5′-benzoyl)phenyl]-N-(4″methyl-2″-pyridyl)propionamide, reference compound] |  |  | % inhibition of chemotaxis of human PMNs stimulated by IL-8 (10 ng/mL) ([1]; Table 4, IL-8 10 ng/mL): −15 ± 25%
16 | Cc1ccnc(NC(=O)[C@@H](C)c2ccc(CC(C)C)cc2)c1 [S(+)-2-[(4′-isobutyl)phenyl]-N-(4″-methyl-2″-pyridyl)propionamide, reference compound] |  |  | % inhibition of chemotaxis of human PMNs stimulated by IL-8 (10 ng/mL) ([1]; Table 4, IL-8 10 ng/mL): −3 ± 5%
17 | Cc1ccnc(NC(=O)[C@@H](C)c2cccc(C(=O)c3ccccc3)c2)c1 [S(+)-2-[(5′-benzoyl)phenyl]-N-(4″-methyl-2″-pyridyl)propionamide, reference compound] |  |  | % inhibition of chemotaxis of human PMNs stimulated by IL-8 (10 ng/mL) ([1]; Table 4, IL-8 10 ng/mL): −1 ± 10%
18 | CC(C)Cc1ccc([C@H](C)C(=O)N[C@H](C)C(=O)O)cc1 [S,D, reference compound] |  |  | % inhibition of leucocyte chemotaxis [1]: 4 ± 19%
19 | CC(C)Cc1ccc([C@H](C)C(=O)N[C@@H](C)C(=O)O)cc1 [S,L, reference compound] |  |  | % inhibition of leucocyte chemotaxis [1]: 4 ± 13%
20 | C[C@H](C(=O)O)c1cccc(C(=O)c2ccccc2)c1 [S-ketoprofen] |  |  | TNF-α in the incubation medium (TNF-α [3]): 39 ± 5 ng/mL
